# Source: patent publication US7163952B2, “Azole compound and medicinal use thereof” (Japan Tobacco Inc., priority 2001, dated 2007)
# Columns and labels:
# male ob/ob mice = assay: Hypoglycemic action in ob/ob mice, oral administration; type: in vivo; settings: Mus musculus, fasting, 3 hr after administration, relative to control group, read-out: Decrease in blood glucose level (%) 3 hr; for inhibition in vivo at 1 mg/kg: dose 1 mg/kg oral; for inhibition in vivo at 3 mg/kg: dose 3 mg/kg oral
# Method: A 0.5% methyl cellulose suspension of the test compound was orally administered to male ob/ob mice (6 to 9 weeks old) grouped based on blood glucose level. A 0.5% methyl cellulose solution alone was administered to a control group.
# The blood was drawn from the orbital vein with anesthesia at 3 hours after the administration. The blood was drawn under fasting by removing the feed immediately before test compound administration. The blood thus drawn was separated by centrifugation and the blood glucose level was measured from the obtained plasma according to the hexokinase method (glucose measure kit). For evaluation, decrease in the blood glucose level of the test compound administration group relative to the control group was shown in percentage.
# [1] = target: T1, recombinant human protein tyrosine phosphatase 1B (Homo sapiens, UniProt P18031); assay: Protein tyrosine phosphatase 1B inhibitory action (malachite green, phosphorylated insulin receptor peptide substrate); type: biochemical; settings: recombinant human PTP1B, 60 min room temperature, absorbance at 650 nm
# T1 construct: purchased UBI
# T1 sequence (P18031 1-435): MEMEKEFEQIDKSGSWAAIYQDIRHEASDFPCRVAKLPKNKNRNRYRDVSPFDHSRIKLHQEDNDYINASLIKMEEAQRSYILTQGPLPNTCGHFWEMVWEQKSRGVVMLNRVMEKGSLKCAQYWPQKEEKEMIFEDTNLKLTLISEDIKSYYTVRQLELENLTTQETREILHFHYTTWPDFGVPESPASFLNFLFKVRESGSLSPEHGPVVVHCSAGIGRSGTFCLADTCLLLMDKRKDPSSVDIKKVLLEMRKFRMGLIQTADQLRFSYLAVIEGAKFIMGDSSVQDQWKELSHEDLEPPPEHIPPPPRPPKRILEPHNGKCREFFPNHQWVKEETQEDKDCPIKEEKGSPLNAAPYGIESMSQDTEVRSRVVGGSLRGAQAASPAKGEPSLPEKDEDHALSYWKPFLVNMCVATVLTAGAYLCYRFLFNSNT
# Method: Preparation of Assay Buffer:
# 50 mM Tris-HCl buffer (pH 7.5), and 50 mM NaCl and 3 mM dithiothreitol (DTT) were prepared.
# Respective 10 mM DMSO solutions of 0.1, 0.3, 1, 3 and 10 μM test compounds were diluted with the above-mentioned assay buffer so that the final dimethyl sulfoxide (DMSO) concentration would be not more than 1%. As a control, an assay buffer was used.
# Preparation of Substrate:
# A synthetic peptide consisting of 12 amino acids corresponding to 1142nd–1153rd of insulin receptor sequence, wherein three tyrosines therein had been phosphorylated, was diluted with the above-mentioned assay buffer to 80 μM.
# A recombinant human protein tyrosine phosphatase 1B (manufactured by UBI) was diluted with the above-mentioned assay buffer (1.2 ng/25 μl).
# A sample (10 μl) and a substrate (25 μl) prepared as mentioned above were successively added to a 96 well plate, and an enzyme (25 μl) prepared as mentioned above was added and mixed. After incubation at room temperature for 60 min., malachite green (120 μl, Biomol), which is a phosphorus color fixing agent, was added, and the mixture was further incubated at room temperature for 20 min. to allow color development. The absorbance at 650 nm was measured on a plate reader, and the protein tyrosine phosphatase 1B inhibitory action of the test compound was evaluated.
SMILES,melting point,also measured
"CN(Cc1ccc(C2CCCCC2)cc1)c1ccc(-c2csc(N(C)Cc3ccc(C(=O)O)cc3)n2)cc1 [Example 1, 4-(N-(4-(4-(N-(4-cyclohexylbenzyl)-N-methylamino)phenyl)-2-thiazolyl)-N-methylaminomethyl)benzoic acid]",–,inhibition in vivo at 0.3 mg/kg (male ob/ob mice; dose 0.3 mg/kg oral): 35%; inhibition in vivo at 1 mg/kg (male ob/ob mice): 35%; inhibition in vivo at 3 mg/kg (male ob/ob mice): 35%; IC50 [1]: 0.32 µM
"CN(Cc1ccc(C(=O)O)cc1)c1nc(-c2ccc(OCc3ccc(C4CCCCC4)cc3)cc2)cs1 [Example 2, potassium 4-(N-(4-(4-(4-cyclohexylbenzyloxy)phenyl)-2-thiazolyl)-N-methylaminomethyl)benzoate]",–,inhibition in vivo at 1 mg/kg (male ob/ob mice): 37%; inhibition in vivo at 3 mg/kg (male ob/ob mice): 47%; IC50 [1]: 0.22 µM
"CN(CCc1ccc(C(F)(F)F)cc1)c1ccc(-c2csc(N(C)Cc3ccc(C(=O)O)cc3)n2)cc1 [Example 236, 4-((N-methyl-N-(4-(4-(N-methyl-N-(2-(4-trifluoromethylphenyl)ethyl)amino)phenyl)-2-thiazolyl)amino)methyl)benzoic acid]",158 to 159 °C,–
"CN(C)c1ccc(CCN(C)c2ccc(-c3csc(N(C)Cc4ccc(C(=O)O)cc4)n3)cc2)cc1 [Example 237, 4-((N-(4-(4-(N-(2-(4-dimethylaminophenyl)ethyl)-N-methylamino)phenyl)-2-thiazolyl)-N-methylamino)methyl)benzoic acid]",164 to 167 °C,–
"CN(CCc1ccc(N2CCOCC2)cc1)c1ccc(-c2csc(N(C)Cc3ccc(C(=O)O)cc3)n2)cc1 [Example 238, 4-((N-methyl-N-(4-(4-(N-methyl-N-(2-(4-morpholinophenyl)ethyl)amino)phenyl)-2-thiazolyl)amino)methyl)benzoic acid]",212 to 213 °C,–
"CN(Cc1ccc(C(=O)O)cc1)c1nc(-c2ccc(CN3CCN(c4ccccc4)CC3)cc2)cs1 [Example 239, 4-((N-methyl-N-(4-(4-(4-phenyl-1-piperazinylmethyl)phenyl)-2-thiazolyl)amino)methyl)benzoic acid]",159 to 163 °C,–
"CN(Cc1ccc(C(=O)O)cc1)c1nc(-c2ccc(CN3CCN(Cc4ccccc4)CC3)cc2)cs1 [Example 240, 4-((N-(4-(4-(4-benzyl-1-piperazinylmethyl)phenyl)-2-thiazolyl)-N-methylamino)methyl)benzoic acid]",130 to 135 °C,–
"CCC(CC)c1ccc(CN(C)c2ccc(-c3csc(N(C)Cc4ccc(C(=O)O)cc4)n3)cc2)cc1 [Example 241, 4-((N-(4-(4-(N-(4-(1-ethylpropyl)benzyl)-N-methylamino)phenyl)-2-thiazolyl)-N-methylamino)methyl)benzoic acid]",147 to 148 °C,–
"CN(Cc1ccc(C(=O)O)cc1)c1nc(-c2ccc(N(C)Cc3ccc(C4CCCCC4)cc3)c(Cl)c2)cs1 [Example 242, 4-((N-(4-(3-chloro-4-(N-(4-cyclohexylbenzyl)-N-methylamino)phenyl)-2-thiazolyl)-N-methylamino)methyl)benzoic acid]",149 to 150 °C,–
"CN(Cc1ccc(C(=O)O)cc1)c1nc(-c2ccc(CN3CCN(C(=O)OCc4ccccc4)CC3)cc2)cs1 [Example 243, benzyl 4-(4-(2-(N-(4-carboxybenzyl)-N-methylamino)-4-thiazolyl)benzyl)-piperazine-1-carboxylate]",122 to 127 °C,–
"CN(Cc1ccc(C(=O)O)cc1)c1nc(-c2ccc(N(C)Cc3ccc(C(C)(C)C)cc3)c(Cl)c2)cs1 [Example 244, 4-((N-(4-(4-(N-(4-tert-butylbenzyl)-N-methylamino)-3-chlorophenyl)-2-thiazolyl)-N-methylamino)methyl)benzoic acid]",153 to 154 °C,–
"CC(C)CSc1ccc(CN(C)c2ccc(-c3csc(N(C)Cc4ccc(C(=O)O)cc4)n3)cc2)cc1 [Example 245, 4-((N-(4-(4-(N-(4-isobutylsulfanylbenzyl)-N-methylamino)phenyl)-2-thiazolyl)-N-methylamino)methyl)benzoic acid]",132 to 134 °C,–
"CN(Cc1ccc(C2CCCCC2)cc1)c1ccc(-c2csc(NCc3ccc(C(=O)O)cc3)n2)cc1 [Example 247, 4-((4-(4-(N-(4-cyclohexylbenzyl)-N-methylamino)phenyl)-2-thiazolylamino)methyl)benzoic acid]",209 °C (dec.),–
"CN(Cc1ccc(C(=O)OC2OC(=O)c3ccccc32)cc1)c1nc(-c2ccc(OCc3ccc(C4CCCCC4)cc3)cc2)cs1 (centres unmarked) [Example 248, 3-oxo-1,3-dihydroisobenzofuran-1-yl 4-((N-(4-(4-(4-cyclohexylbenzyloxy)phenyl)-2-thiazolyl)-N-methylamino)methyl)benzoate]",104 to 105 °C,–
"CCOC(=O)c1ccc(CN(C)c2nc(-c3ccc(OCc4ccc(C5CCCCC5)cc4)cc3)cs2)cc1 [Example 249, ethyl 4-((N-(4-(4-(4-cyclohexylbenzyloxy)phenyl)-2-thiazolyl)-N-methylamino)methyl)benzoate]",117 to 118 °C,–
"CC(=O)OC(C)OC(=O)c1ccc(CN(C)c2nc(-c3ccc(OCc4ccc(C5CCCCC5)cc4)cc3)cs2)cc1 (centres unmarked) [Example 250, 1-acetoxyethyl 4-((N-(4-(4-(4-cyclohexylbenzyloxy)phenyl)-2-thiazolyl)-N-methylamino)methyl)benzoate]",116 to 117 °C,–
"CN(c1ccc(C(=O)[O-])cc1)c1nc(-c2ccc(NCc3ccc(C4CCCCC4)cc3)cc2)cs1.[Na+] [Example 263, sodium 4-(N-(4-(4-(4-cyclohexylbenzylamino)phenyl)-2-thiazolyl)-N-methylamino)benzoate]",260 °C,–
"CN(Cc1ccc(C(=O)OCC(=O)OC(C)(C)C)cc1)c1nc(-c2ccc(OCc3ccc(C4CCCCC4)cc3)cc2)cs1 [Example 267, tert-butoxycarbonylmethyl 4-((N-(4-(4-(4-cyclohexylbenzyloxy)phenyl)-2-thiazolyl)-N-methylamino)methyl)benzoate]",122 to 123 °C,–
"CN(Cc1ccc(C(=O)OCOC(=O)C(C)(C)C)cc1)c1nc(-c2ccc(OCc3ccc(C4CCCCC4)cc3)cc2)cs1 [Example 268, 2,2-dimethylpropionyloxymethyl 4-((N-(4-(4-(4-cyclohexylbenzyloxy)phenyl)-2-thiazolyl)-N-methylamino)methyl)benzoate]",88 to 90 °C,–
"CCOC(=O)OC(C)OC(=O)c1ccc(CN(C)c2nc(-c3ccc(OCc4ccc(C5CCCCC5)cc4)cc3)cs2)cc1 (centres unmarked) [Example 269, 1-ethoxycarbonyloxyethyl 4-((N-(4-(4-(4-cyclohexylbenzyloxy)phenyl)-2-thiazolyl)-N-methylamino)methyl)benzoate]",99 to 101 °C,–
"CC(=O)OCOC(=O)c1ccc(CN(C)c2nc(-c3ccc(OCc4ccc(C5CCCCC5)cc4)cc3)cs2)cc1 [Example 270, acetoxymethyl 4-((N-(4-(4-(4-cyclohexylbenzyloxy)phenyl)-2-thiazolyl)-N-methylamino)methyl)benzoate]",100 to 104 °C,–
"CC(C)OC(=O)OC(C)OC(=O)c1ccc(CN(C)c2nc(-c3ccc(OCc4ccc(C5CCCCC5)cc4)cc3)cs2)cc1 (centres unmarked) [Example 271, 1-isopropoxycarbonyloxyethyl 4-((N-(4-(4-(4-cyclohexylbenzyloxy)phenyl)-2-thiazolyl)-N-methylamino)methyl)benzoate]",76 to 84 °C,–
"CC(OC(=O)OC1CCCCC1)OC(=O)c1ccc(CN(C)c2nc(-c3ccc(OCc4ccc(C5CCCCC5)cc4)cc3)cs2)cc1 (centres unmarked) [Example 272, 1-cyclohexyloxycarbonyloxyethyl 4-((N-(4-(4-(4-cyclohexylbenzyloxy)phenyl)-2-thiazolyl)-N-methylamino)methyl)benzoate]",75 to 79 °C,–
"Cc1oc(=O)oc1COC(=O)c1ccc(CN(C)c2nc(-c3ccc(OCc4ccc(C5CCCCC5)cc4)cc3)cs2)cc1 [Example 273, 5-methyl-2-oxo-1,3-dioxl-4-ylmethyl 4-((N-(4-(4-(4-cyclohexylbenzyloxy)phenyl)-2-thiazolyl)-N-methylamino)methyl)benzoate]",87 to 92 °C,–
